Where “and” joins values, the source holds several entries; their conditions need not be identical. Equal entries are not always repeated.

This passage reports ED50 and Ki results from ChEMBL document CHEMBL1150993, “Design of dual acting anticonvulsant-antimuscarinic succinimide and hydantoin derivatives” (Bioorg Med Chem Lett, 1997).

One experiment has as its system Mus musculus. The experiment in a line: Anticonvulsant activity was determined in MES model, after 1 hour post administration in mice. In kind it is functional.
Experiment [1] deals with T1, Muscarinic acetylcholine receptor M1 (Rattus norvegicus, UniProt P08482).
T1 sequence (P08482 whole entry): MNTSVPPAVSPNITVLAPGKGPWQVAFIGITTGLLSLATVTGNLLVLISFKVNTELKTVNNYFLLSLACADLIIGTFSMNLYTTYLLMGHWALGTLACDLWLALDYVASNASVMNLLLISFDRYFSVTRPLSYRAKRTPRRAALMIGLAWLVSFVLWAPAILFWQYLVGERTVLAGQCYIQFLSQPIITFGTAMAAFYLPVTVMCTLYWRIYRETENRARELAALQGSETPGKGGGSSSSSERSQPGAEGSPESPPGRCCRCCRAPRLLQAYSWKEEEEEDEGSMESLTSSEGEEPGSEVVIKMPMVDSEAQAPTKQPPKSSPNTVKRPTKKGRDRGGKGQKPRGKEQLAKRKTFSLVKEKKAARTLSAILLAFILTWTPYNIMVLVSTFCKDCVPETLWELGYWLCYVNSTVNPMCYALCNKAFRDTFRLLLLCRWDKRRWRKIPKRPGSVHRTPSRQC
Kind of experiment: Displacement of [3H]pirenzepine from muscarinic M1 receptor of rat cortex homogenates. In general terms: Displacement assays read how much labelled ligand stays bound in the presence of the test substance.

Experiment [2] concerns the target T2, Muscarinic acetylcholine receptor M2 (Rattus norvegicus, UniProt P10980).
T2 sequence (P10980 whole entry): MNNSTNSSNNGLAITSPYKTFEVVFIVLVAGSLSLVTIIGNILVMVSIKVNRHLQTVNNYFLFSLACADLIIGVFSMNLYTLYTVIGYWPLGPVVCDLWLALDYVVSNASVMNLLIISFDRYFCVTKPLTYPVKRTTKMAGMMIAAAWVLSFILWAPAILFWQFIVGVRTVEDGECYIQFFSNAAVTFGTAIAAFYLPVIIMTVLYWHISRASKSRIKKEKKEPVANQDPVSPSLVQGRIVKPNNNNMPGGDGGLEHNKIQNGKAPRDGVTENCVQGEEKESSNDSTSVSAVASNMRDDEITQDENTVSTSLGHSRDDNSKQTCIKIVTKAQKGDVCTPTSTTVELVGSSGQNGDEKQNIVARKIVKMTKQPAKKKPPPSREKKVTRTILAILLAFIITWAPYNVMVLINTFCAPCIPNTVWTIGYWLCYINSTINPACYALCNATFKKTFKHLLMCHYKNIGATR
The experiment in a line: Displacement of [3H]QNB (quinuclidinyl benzylate) from muscarinic M2 receptor of rat heart homogenates. In kind it is tissue-based.

For the compound `CCN(CC)CC#CCN1C(=O)NC(c2ccccc2)(c2ccccc2)C1=O`, the ED50 – broadly, the midpoint of the dose-response relation – in the experiment on Mus musculus came out at 83.6 mg/kg. The Ki (as a rule, the equilibrium dissociation constant of an inhibitor or competing ligand from its target) in experiment [1] was 380 nM; in experiment [2], 950 nM.
Turning to `CCN(CC)CC#CCN1C(=O)CC2(C1=O)c1ccccc1-c1ccccc12`, in the experiment on Mus musculus, the ED50 was 23.7 mg/kg and 58 µmol/kg. Also, the values for the inhibitory constant (Ki) in experiment [1] and in experiment [2] were 1630 nM and above 10000 nM, respectively.
In the case of `CCN(CC)CC#CCN1C(=O)c2ccccc2C1=O`, the Ki in experiment [1] came to 30 nM; in experiment [2] it was 100 nM.
In the experiment on Mus musculus, `O=C1CC2(CCc3ccccc32)C(=O)N1CC#CCN1CCCC1` (stereo not drawn) returned an ED50 above 600 mg/kg. In addition, the Ki in experiment [1] is 1590 nM; in experiment [2], above 10000 nM.
`CC(C)N(CC#CCN1C(=O)CC2(C1=O)c1ccccc1-c1ccccc12)C(C)C`: the Ki in experiment [1] is 1620 nM; in experiment [2] it was above 10000 nM.
Consider `CCN(CC)CC#CCN1C(=O)CC(c2ccccc2)(c2ccccc2)C1=O`, for which the ED50 with Mus musculus was 20.1 mg/kg and 49 µmol/kg. The Ki in experiment [1] is 120 nM; in experiment [2], 380 nM.
For `CCN(CC)CC#CCN1C(=O)CC2(C1=O)c1ccccc1CCc1ccccc12`, in the experiment with Mus musculus, the ED50 was 9.6 mg/kg and 22 µmol/kg. Also, the Ki in experiment [1] is 460 nM; in experiment [2], 2090 nM.
`CCN(CC)CC#CCN1C(=O)CC(c2ccccc2)C1=O` (stereo not drawn): in the experiment with Mus musculus, the ED50 was 48.9 mg/kg and 126 µmol/kg. The Ki is 2300 nM in experiment [1] and above 10000 nM in experiment [2].
Take `O=C1NC(c2ccccc2)(c2ccccc2)C(=O)N1CC#CCN1CCCC1`: the Ki was 640 nM in experiment [1] and above 10000 nM in experiment [2].
The corresponding values for `CCN(CC)CC#CCN1C(=O)CC2(CCc3ccccc32)C1=O` (stereo not drawn) are 680 nM and above 10000 nM.
Consider `CCN(CC)CC#CCN1C(=O)NC2(CCc3ccccc32)C1=O` (stereo not drawn), for which the ED50 in the experiment on Mus musculus is 55.4 mg/kg and 153 µmol/kg. Besides, the figures for the Ki in experiment [1] and in experiment [2] were 1050 nM and above 10000 nM, respectively.
Turning to `CC(C)N(CC#CCN1C(=O)CC(c2ccccc2)(c2ccccc2)C1=O)C(C)C`, the ED50 with Mus musculus is 17.5 mg/kg and 40 µmol/kg. Further, the figures for the Ki in experiment [1] and in experiment [2] were 530 nM and 440 nM, respectively.
`O=C1NC(=O)C(c2ccccc2)(c2ccccc2)N1` [PHENYTOIN] showed an ED50 in the experiment with Mus musculus of 16.2 mg/kg.
